From US12552775B2, “Compounds and uses thereof” (Foghorn Therapeutics Inc., priority 2020, dated 2026)

Legend:
[1] = molecular target: T1, HiBit-BRG1 fusion protein (Homo sapiens, UniProt P51532); assay: HiBiT-BRG1 cell-based degradation assay (Nano-Glo HiBiT Lytic Detection, 24 h); details: stable HeLa cell line expressing HiBit-BRG1 and LgBit, top dose 30 μM, read-out: BRG1 HiBit Degradation Maximum (%)
T1 construct: expressed in transfected cells
Method in brief: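 HeLa cells stably expressing HiBiT-BRG1 plus LgBiT were treated with 10-point 3-fold compound dilutions (top 30 μM final) for 24 h. Lytic Nano-Glo HiBiT luminescence was read. % degradation was normalised between DMSO (high control) and 2 μM of a reference BRM/BRG1 degrader (low control).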

[2] = molecular target: T2, HiBit-BRM fusion protein (Homo sapiens, UniProt P51531); assay: HiBiT-BRM cell-based degradation assay (Nano-Glo HiBiT Lytic Detection, 24 h); details: stable HeLa cell line expressing HiBiT-BRM, top dose 30 μM
T2 construct: expressed in transfected cells
T2 sequence (P51531 whole entry, the tested form may be a part): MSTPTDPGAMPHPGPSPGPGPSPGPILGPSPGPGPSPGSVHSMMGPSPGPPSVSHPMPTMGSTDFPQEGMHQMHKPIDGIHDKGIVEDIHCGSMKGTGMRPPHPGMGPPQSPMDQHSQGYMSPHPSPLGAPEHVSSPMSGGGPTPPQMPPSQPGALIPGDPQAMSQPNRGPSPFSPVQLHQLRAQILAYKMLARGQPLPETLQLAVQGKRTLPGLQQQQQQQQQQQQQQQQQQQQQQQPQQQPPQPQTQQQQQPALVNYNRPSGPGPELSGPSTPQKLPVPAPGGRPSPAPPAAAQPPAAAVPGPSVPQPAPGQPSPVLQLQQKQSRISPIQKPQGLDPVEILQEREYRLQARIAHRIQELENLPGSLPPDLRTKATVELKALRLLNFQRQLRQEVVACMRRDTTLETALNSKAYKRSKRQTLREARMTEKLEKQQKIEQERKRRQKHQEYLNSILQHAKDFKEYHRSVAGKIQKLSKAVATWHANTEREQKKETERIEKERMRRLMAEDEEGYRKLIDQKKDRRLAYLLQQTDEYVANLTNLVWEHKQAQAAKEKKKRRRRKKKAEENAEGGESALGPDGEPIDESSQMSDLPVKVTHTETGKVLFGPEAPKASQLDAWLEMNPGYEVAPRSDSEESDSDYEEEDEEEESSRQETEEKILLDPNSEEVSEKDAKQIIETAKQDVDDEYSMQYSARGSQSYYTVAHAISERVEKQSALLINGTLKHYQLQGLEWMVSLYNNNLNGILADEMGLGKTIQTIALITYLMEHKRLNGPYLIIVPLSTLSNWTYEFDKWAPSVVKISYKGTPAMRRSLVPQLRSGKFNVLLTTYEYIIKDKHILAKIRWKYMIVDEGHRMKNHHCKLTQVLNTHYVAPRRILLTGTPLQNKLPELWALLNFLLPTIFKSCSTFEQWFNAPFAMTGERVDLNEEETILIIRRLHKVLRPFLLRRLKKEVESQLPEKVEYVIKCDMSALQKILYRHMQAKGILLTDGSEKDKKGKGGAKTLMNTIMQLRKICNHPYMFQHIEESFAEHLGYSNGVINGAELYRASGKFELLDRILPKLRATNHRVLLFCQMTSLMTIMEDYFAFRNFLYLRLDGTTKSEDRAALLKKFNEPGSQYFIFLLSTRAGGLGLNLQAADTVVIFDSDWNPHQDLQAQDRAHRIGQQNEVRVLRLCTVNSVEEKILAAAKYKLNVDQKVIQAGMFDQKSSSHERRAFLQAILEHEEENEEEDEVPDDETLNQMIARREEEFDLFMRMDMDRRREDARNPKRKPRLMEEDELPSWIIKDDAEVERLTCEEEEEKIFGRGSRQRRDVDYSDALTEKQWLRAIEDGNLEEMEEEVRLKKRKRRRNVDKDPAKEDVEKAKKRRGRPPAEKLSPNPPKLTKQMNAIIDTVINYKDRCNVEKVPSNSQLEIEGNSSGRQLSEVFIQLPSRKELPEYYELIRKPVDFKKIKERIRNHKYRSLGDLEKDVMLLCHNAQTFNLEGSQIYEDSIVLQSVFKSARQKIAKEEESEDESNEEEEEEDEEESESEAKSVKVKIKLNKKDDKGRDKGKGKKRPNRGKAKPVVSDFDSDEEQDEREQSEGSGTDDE
Method in brief: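 Stable HiBiT-BRM HeLa cells were treated with 10-point 3-fold serial dilutions (30 μM final top dose, duplicate) for 24 h, then lysed with LgBiT-containing detection reagent and luminescence read. Degradation % was normalised to DMSO (high control) and 2 μM reference BRM/BRG1 degrader (low control).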

T1 sequence (P51532 whole entry, the tested form may be a part): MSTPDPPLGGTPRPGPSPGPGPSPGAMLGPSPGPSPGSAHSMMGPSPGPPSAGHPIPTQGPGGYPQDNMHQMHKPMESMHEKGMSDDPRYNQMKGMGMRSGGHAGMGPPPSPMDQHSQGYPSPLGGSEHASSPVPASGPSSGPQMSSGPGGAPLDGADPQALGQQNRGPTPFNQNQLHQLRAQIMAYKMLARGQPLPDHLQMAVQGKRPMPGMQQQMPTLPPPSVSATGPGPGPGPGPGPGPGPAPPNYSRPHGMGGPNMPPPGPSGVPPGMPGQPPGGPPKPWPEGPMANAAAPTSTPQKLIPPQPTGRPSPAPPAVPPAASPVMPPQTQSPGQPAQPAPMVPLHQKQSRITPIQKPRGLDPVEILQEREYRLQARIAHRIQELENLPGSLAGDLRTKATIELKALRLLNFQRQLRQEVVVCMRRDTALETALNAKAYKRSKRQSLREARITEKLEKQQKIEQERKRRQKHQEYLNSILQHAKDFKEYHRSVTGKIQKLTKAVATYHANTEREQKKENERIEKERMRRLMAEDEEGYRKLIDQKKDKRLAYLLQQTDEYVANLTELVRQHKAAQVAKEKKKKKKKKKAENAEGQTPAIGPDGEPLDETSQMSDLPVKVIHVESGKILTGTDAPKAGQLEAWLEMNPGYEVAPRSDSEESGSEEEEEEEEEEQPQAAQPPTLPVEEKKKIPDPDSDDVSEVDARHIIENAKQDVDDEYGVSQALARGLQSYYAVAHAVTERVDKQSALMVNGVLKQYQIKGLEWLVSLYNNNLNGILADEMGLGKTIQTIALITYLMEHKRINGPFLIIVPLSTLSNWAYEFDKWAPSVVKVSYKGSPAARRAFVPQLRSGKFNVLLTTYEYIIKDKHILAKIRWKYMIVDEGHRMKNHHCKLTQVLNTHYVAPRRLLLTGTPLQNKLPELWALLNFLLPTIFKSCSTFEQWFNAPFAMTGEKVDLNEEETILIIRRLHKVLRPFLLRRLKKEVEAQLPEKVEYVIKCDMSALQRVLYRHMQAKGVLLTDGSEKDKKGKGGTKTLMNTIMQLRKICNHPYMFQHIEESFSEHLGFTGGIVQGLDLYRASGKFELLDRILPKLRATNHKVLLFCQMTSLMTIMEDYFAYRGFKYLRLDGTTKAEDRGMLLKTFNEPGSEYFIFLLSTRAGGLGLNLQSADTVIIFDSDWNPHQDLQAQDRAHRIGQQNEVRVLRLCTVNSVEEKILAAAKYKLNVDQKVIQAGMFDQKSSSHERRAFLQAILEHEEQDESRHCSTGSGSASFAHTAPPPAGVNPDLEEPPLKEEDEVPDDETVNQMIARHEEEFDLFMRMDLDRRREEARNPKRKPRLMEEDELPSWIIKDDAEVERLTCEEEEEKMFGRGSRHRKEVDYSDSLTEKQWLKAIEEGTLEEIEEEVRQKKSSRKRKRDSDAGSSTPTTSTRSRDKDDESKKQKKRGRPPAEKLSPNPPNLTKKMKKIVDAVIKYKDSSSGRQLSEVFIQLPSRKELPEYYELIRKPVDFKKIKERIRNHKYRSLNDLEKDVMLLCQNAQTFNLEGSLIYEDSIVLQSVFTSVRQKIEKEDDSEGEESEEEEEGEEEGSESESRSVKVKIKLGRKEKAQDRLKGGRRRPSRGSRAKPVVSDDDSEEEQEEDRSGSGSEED

SMILES | Dmax [1] | BRM HiBit Degradation Maximum (%) [2]
Nc1nnc(-c2ccccc2O)cc1OCC12CC(C(=O)NCCOCCOCCOCCNC(=O)COc3cccc4c3C(=O)N(C3CCC(=O)NC3=O)C4=O)(C1)C2 (stereo not shown) [Compound 92, 3-(((3-amino-6-(2-hydroxyphenyl)pyridazin-4-yl)oxy)methyl)-N-(1-((2-(2,6-dioxopiperidin-3-yl)-1,3-dioxoisoindolin-4-yl)oxy)-2-oxo-6,9,12-trioxa-3-azatetradecan-14-yl)bicyclo[1.1.1]pentane-1-carboxamide] | < 50% | C (“C” indicates maximum degradation < 50%)
Cc1ncsc1-c1ccc(CNC(=O)[C@@H]2C[C@@H](O)CN2C(=O)[C@@H](NC(=O)CCCCCCCCCC(=O)NC23CC(CCOc4cc(-c5ccccc5O)nnc4N)(C2)C3)C(C)(C)C)cc1 [Compound 48, N1-(3-(2-((3-amino-6-(2-hydroxyphenyl)pyridazin-4-yl)oxy)ethyl)bicyclo[1.1.1]pentan-1-yl)-N11-((S)-1-((2S,4R)-4-hydroxy-2-((4-(4-methylthiazol-5-yl)benzyl)carbamoyl)pyrrolidin-1-yl)-3,3-dimethyl-1-oxobutan-2-yl)undecanediamide; formic acid] | > 50% | B (“B” indicates maximum degradation ≥ 50%)
Nc1nnc(-c2ccccc2O)cc1OCC12CC(CNC(=O)CCN3CCN(c4ccc5c(c4)C(=O)N(C4CCC(=O)NC4=O)C5=O)CC3)(C1)C2 (stereo not shown) [Compound 16, N-((3-(((3-amino-6-(2-hydroxyphenyl)pyridazin-4-yl)oxy)methyl)bicyclo[1.1.1]pentan-1-yl)methyl)-3-(4-(2-(2,6-dioxopiperidin-3-yl)-1,3-dioxoisoindolin-5-yl)piperazin-1-yl) propanamide] | < 50% | C (“C” indicates maximum degradation < 50%)
Nc1nnc(-c2ccccc2O)cc1OCC12CC(CNC(=O)CCCCCCCCCCNc3ccc4c(c3)C(=O)N(C3CCC(=O)NC3=O)C4=O)(C1)C2 (stereo not shown) [Compound 10, N-[[3-([[3-amino-6-(2-hydroxyphenyl)pyridazin-4-yl]oxy]methyl)bicyclo[1.1.1]pentan-1-yl]methyl]-11-[[2-(2,6-dioxopiperidin-3-yl)-1,3-dioxoisoindol-5-yl]amino]undecanamide] | < 50% | C (“C” indicates maximum degradation < 50%)
Nc1nnc(-c2ccccc2O)cc1OCC12CC(C(=O)NCCCCCNc3ccc4c(c3)C(=O)N(C3CCC(=O)NC3=O)C4=O)(C1)C2 (stereo not shown) [Compound 63, 3-(((3-amino-6-(2-hydroxyphenyl)pyridazin-4-yl)oxy)methyl)-N-(5-((2-(2,6-dioxopiperidin-3-yl)-1,3-dioxoisoindolin-5-yl)amino)pentyl)bicyclo[1.1.1]pentane-1-carboxamide; formic acid] | < 50% | C (“C” indicates maximum degradation < 50%)
Nc1nnc(-c2ccccc2O)cc1OCC12CC(C(=O)NCCOCCOCCNc3cccc4c3CN(C3CCC(=O)NC3=O)C4=O)(C1)C2 (stereo not shown) [Compound 60, 3-(((3-amino-6-(2-hydroxyphenyl)pyridazin-4-yl)oxy)methyl)-N-(2-(2-(2-((2-(2,6-dioxopiperidin-3-yl)-1-oxoisoindolin-4-yl)amino)ethoxy)ethoxy)ethyl)bicyclo[1.1.1]pentane-1-carboxamide] | < 50% | C (“C” indicates maximum degradation < 50%)
Nc1nnc(-c2ccccc2O)cc1OCC12CC(C(=O)NCCOc3cccc(OCCNc4cccc5c4C(=O)N(C4CCC(=O)NC4=O)C5=O)c3)(C1)C2 (stereo not shown) [Compound 83, 3-(((3-amino-6-(2-hydroxyphenyl)pyridazin-4-yl)oxy)methyl)-N-(2-(3-(2-((2-(2,6-dioxopiperidin-3-yl)-1,3-dioxoisoindolin-4-yl)amino)ethoxy)phenoxy)ethyl)bicyclo[1.1.1]pentane-1-carboxamide] | < 50% | C (“C” indicates maximum degradation < 50%)
Nc1nnc(-c2ccccc2O)cc1OCC12CC(C(=O)N3CCN(c4ccc5c(c4)C(=O)N(C4CCC(=O)NC4=O)C5=O)CC3)(C1)C2 (stereo not shown) [Compound 54, 5-(4-(3-(((3-amino-6-(2-hydroxyphenyl)pyridazin-4-yl)oxy)methyl)bicyclo[1.1.1]pentane-1-carbonyl)piperazin-1-yl)-2-(2,6-dioxopiperidin-3-yl)isoindoline-1,3-dione] | < 50% | C (“C” indicates maximum degradation < 50%)
Nc1nnc(-c2ccccc2O)cc1OCCC12CC(NC(=O)CCOCCOCCNc3ccc4c(c3)C(=O)N(C3CCC(=O)NC3=O)C4=O)(C1)C2 (stereo not shown) [Compound 22, N-[3-(2-[[3-amino-6-(2-hydroxyphenyl)pyridazin-4-yl]oxy]ethyl)bicyclo[1.1.1]pentan-1-yl]-3-[2-(2-[[2-(2,6-dioxopiperidin-3-yl)-1,3-dioxoisoindol-5-yl]amino]ethoxy)ethoxy]propanamide] | < 50% | C (“C” indicates maximum degradation < 50%)
Nc1nnc(-c2ccccc2O)cc1OCCC12CC(NC(=O)C3CC3CNC(=O)COc3cccc4c3C(=O)N(C3CCC(=O)NC3=O)C4=O)(C1)C2 (stereo not shown) [Compound 28, N-[3-(2-[[3-amino-6-(2-hydroxyphenyl)pyridazin-4-yl]oxy]ethyl)bicyclo[1.1.1]pentan-1-yl]-2-[(2-[[2-(2,6-dioxopiperidin-3-yl)-1,3-dioxoisoindol-4-yl]oxy]acetamido)methyl]cyclopropane-1-carboxamide] | < 50% | C (“C” indicates maximum degradation < 50%)
Cc1ncsc1-c1ccc(CNC(=O)[C@@H]2C[C@@H](O)CN2C(=O)[C@@H](NC(=O)CCCCC(=O)NCC23CC(COc4cc(-c5ccccc5O)nnc4N)(C2)C3)C(C)(C)C)cc1 [Compound 35, N1-((3-(((3-amino-6-(2-hydroxyphenyl)pyridazin-4-yl)oxy)methyl)bicyclo[1.1.1]pentan-1-yl)methyl)-N6-((S)-1-((2S,4R)-4-hydroxy-2-((4-(4-methylthiazol-5-yl)benzyl)carbamoyl)pyrrolidin-1-yl)-3,3-dimethyl-1-oxobutan-2-yl)adipamide] | < 50% | C (“C” indicates maximum degradation < 50%)
